Source: patent publication US10851071B2, “M-dihydroxybenzene derivative crystal and salt, and manufacturing method thereof” (Chia Tai Tianqing Pharmaceutical Group Co., Ltd., priority 2016, dated 2020)

Tests used:
[1] = Dynamic vapour sorption (DVS), wet weight gain; type: physicochemical; conditions: 25±1° C. and 80±2% RH
[2] = Crystal stability under humidity, heat and grinding; type: physicochemical; conditions: RT/92.5% RH 5 and 10 days; 60° C. 5 and 10 days; grinded 10/20/30 min
[3] = Rough solubility test of A-type crystal and salts of the compound of formula (I); conditions: for solubility: thermodynamic from solid; for Approximate solubility: room temperature
Description: Hydrochloric acid, acetic acid, sodium acetate, sodium chloride, 5% glucose solution, water (buffer is a buffer solution of acetic acid/sodium acetate).
2 mg of a sample was weighed, and dissolved by adding a solvent (10 μL) thereto at room temperature. […] The total amount of the added solvents was up to 2 mL.

[4] = Tissue distribution in SD rats after tail vein injection (LC/MS/MS); type: in vivo
Description: SD rats were used as test animals, and the drug concentrations in plasma, lung and breast tissues of rats at different times after administrating the compound of formula (I) via the injection in tail vein were measured by using LC/MS/MS method. The tissue distribution of the compound of the present invention in rats was investigated, and pharmacokinetic characteristics thereof were evaluated.
Appropriate amounts of samples were weighed, and Luminespib, Ganetespib and the compound of formula (I) of the present invention were respectively formulated into a clear solution with a concentration of 2.5 mg/mL for intravenous injection, wherein the solvent was consisted of 10% (v/v) of DMSO, 14% (v/v) of polyoxyethylene hydrogenated castor oil 40, and 76% (v/v) of 5% aqueous glucose solution.
9 SD male rats were divided into three groups, three rats per group. The rats were administered intravenously through tail vein at a dose of 1 mg/kg after being normally fed.
Samples of blood, lung and breast tissues were collected from the rats in three groups at 0.5, 6, and 24 hours after administration, respectively. The blood sample was separated by centrifugation at 4° C., 3000 rpm/min for 15 min within half an hour after collection, so as to obtain plasma sample. The resulting plasma sample was deposited in polypropylene tubes and stored at −80° C. for LC/MS/MS analysis. After blood sample was collected, the animals were sacrificed with CO2, and the tissue samples were collected. Each tissue sample was washed twice with cold deionized water and adhered onto filter paper. Each tissue sample was then homogenized several times in MeOH/15 mM PBS (1:2) (5 mL MeOH/15 mM PBS (1:2) per gram of tissue, with dilution coefficient of 6), to ensure the formation of homogeneous phase. The whole process was carried out at a freezing point temperature. The homogenized samples were quickly frozen by using dry ice and stored at −80° C. for bioassay.
The contents of the test compounds in the plasma, lung and breast tissues of the rats after the administration by injection were measured with LC/MS/MS method.

[5] = system: BT-474 tumor cells; experiment: In vivo pharmacodynamic evaluation in BT-474 breast cancer transplanted tumors in nude mice
Description: BT-474 tumor cells were subcutaneously inoculated into the right axillary fossa of nude mice at 5×10^6/mouse to form transplanted tumors. When the volume thereof reached 100-200 mm^3, the animals were randomly grouped based on tumor volumes: 6 mice in negative control group; 6 mice in positive control group; and 6 mice in each test group. The mice in the treatment groups were intravenously injected with different concentrations of positive drug Ganetespib (20 mg/kg) and the compound of formula (I) (10 mg/kg and 20 mg/kg) three times a week, and the mice in the negative control group were administrated with equal amount of vehicles at the same time. The length (A) and width (B) of the tumor were measured twice a week by using a vernier caliper, and the tumor volume V=A×B^2/2 was thereby calculated. The calculation of relative tumor volume (RTV) follows: RTV=Vt/V0, wherein Vt was the tumor volume at the end of administration, and V0 was the tumor volume measured before administration to each cage. The pharmacodynamic evaluation index of antitumor activity was the relative tumor proliferation rate T/C (%), and the calculation formula was: TIC (%)=TRTV/CRTV×100%, wherein TRTV: RTV of the treatment group; CRTV: RTV of the negative control group. Therapeutic efficacy evaluation criteria: T/C %>60% was ineffective; T/C %≤60% with P<0.05 after being statistically processed was effective. […]

[6] = 0.9% NaCl solution, saline or isotonic
[7] = 5% glucose solution, saline or isotonic
[8] = acetic acid/sodium acetate buffer pH 3.5, pH 3.5, aqueous buffer
[9] = acetic acid/sodium acetate buffer pH 4.5, pH 4.5, aqueous buffer
[10] = acetic acid/sodium acetate buffer pH 5.5, pH 5.5, aqueous buffer
[11] = acetic acid/sodium acetate buffer pH 6.8, pH 6.8, aqueous buffer
[12] = acetic acid/sodium acetate buffer pH 7.5, pH 7.5, aqueous buffer
[13] = rats, injection dose of 1 mg/kg, same dose

Compound | wet weight gain ΔW % [1] | solubility [3, 6] [µg/mL] | solubility [3, 7] [µg/mL] | solubility [3, 8] [µg/mL] | solubility [3, 9] [µg/mL] | solubility [3, 10] [µg/mL] | solubility [3, 11] [µg/mL] | solubility [3, 12] [µg/mL] | solubility ([3]; water) [µg/mL] | Lung exposure ([4]; SD rats, 1 mg/kg iv) [µM·h] | other results
CCNC(=O)c1noc(-c2cc(C(C)C)c(O)cc2O)c1-c1ccc(CN2CCOCC2)cc1 [Luminespib, 5[2,4dihydroxy-5-isopropylphenyl]-N-ethyl-4[4-(4-morpholinylmethyl)phenyl]-3-isoxazolecarboxamide, reference compound] |  |  |  |  |  |  |  |  |  | 5.284 | 
CCNC(=O)c1onc(-c2cc(C(C)C)c(O)cc2O)c1-c1ccc2c(c1)CCNC2.Cl [hydrochloride, 3-(2,4-dihydroxy-5-isopropylphenyl)-N-ethyl-4-(1,2,3,4tetrahydroisoquinolin-6-yl)isoxazole-5-carboxamide hydrochloride] |  | < 2000 | 4600 to 5500 | 9500 to 14200 | 5800 to 7300 | < 2000 | < 2000 | < 2000 | 5300 to 6300 |  | solubility compared with A-type crystal (in words) ([3]; conclusion from Table 5): significantly higher solubilities than that of the A-type crystal
O=S(=O)(O)O [sulfate] | about 0.081% |  |  |  |  |  |  |  |  |  | 
maleate | about 0.379% |  |  |  |  |  |  |  |  |  | Approximate solubility ([3]; 0.9% NaCl solution): <2000 µg/mL; Approximate solubility ([3]; 5% glucose solution): 2100 to 2300 µg/mL; Approximate solubility ([3]; pH 3.5 buffer (acetic acid/sodium acetate)): 6500 to 7500 µg/mL; Approximate solubility ([3]; pH 4.5 buffer): 3400 to 3900 µg/mL; Approximate solubility ([3]; pH 5.5 buffer): <2000 µg/mL; Approximate solubility ([3]; pH 6.8 buffer): <2000 µg/mL; Approximate solubility ([3]; pH 7.5 buffer): <2000 µg/mL; Approximate solubility ([3]; water): 2200 to 2600 µg/mL

More lines, main results first:

wet weight gain ΔW % [1] | solubility [3, 6] [µg/mL] | solubility [3, 7] [µg/mL] | solubility [3, 8] [µg/mL] | solubility [3, 9] [µg/mL] | solubility [3, 10] [µg/mL] | solubility [3, 11] [µg/mL] | solubility [3, 12] [µg/mL] | solubility ([3]; water) [µg/mL] | Lung exposure ([4]; SD rats, 1 mg/kg iv) [µM·h] | Compound | other results
about 0.45% | < 1000 | < 1000 | 80000 to 100000 | 30000 to 50000 | < 1000 | < 1000 | < 1000 | < 1000 |  | CCNC(=O)c1onc(-c2cc(C(C)C)c(O)cc2O)c1-c1ccc2c(c1)CCNC2 [A-type crystal] | crystal transformation [2]: no crystal transformation; solubility ([3]; 0.01N HCl, simulated gastric fluid): 800 to 1000 µg/mL; solubility ([3]; 0.1N HCl, simulated gastric fluid): < 1000 µg/mL; solubility ([3]; acetic acid/sodium acetate buffer pH 6.5, pH 6.5, aqueous buffer): < 1000 µg/mL
 |  |  |  |  |  |  |  |  | 30.933 | CCNC(=O)c1onc(-c2cc(C(C)C)c(O)cc2O)c1-c1ccc2c(c1)CCNC2 [Compound of formula (I), 3(2,4dihydroxy-5-isopropylphenyl)-N-ethyl-4(1,2,3,4-tetrahydroisoquinolin-6-yl)isoxazole-5-carboxamide] | Breast tissue exposure ([4]; SD rats, 1 mg/kg iv): 7.226 µM·h; Plasma exposure ([4]; SD rats, 1 mg/kg iv): 0.415 µM·h; concentrations in lung and breast tissues compared with Luminespib and Ganetespib (in words) [4, 13]: significantly higher; tissue exposures compared with Luminespib and Ganetespib (in words) [4, 13]: significantly greater; TGI (%) ([5]; 10 mpk iv three times a week, day 35 (administration stopped day 18)): 120%; antitumor effect compared with Ganetespib (in words) ([5]; 10 mpk versus 20 mpk of Ganetespib, BT-474 transplanted mouse model): significantly superior antitumor effect; solubility depending on buffer pH (in words) ([3]; conclusion from Table 5): higher solubility in the buffer of pH 3.5-4.5
